Measured values from PMC8472786, “Inhibitory Effects of Artificial Sweeteners on Bacterial Quorum Sensing” (International Journal of Molecular Sciences, 2021).
Where a SMILES comes first, the peptide text is derived from it.

Each compound was assayed against T1, LasR (Pseudomonas aeruginosa, UniProt P25084) (assay: microscale thermophoresis with fluorescently labeled purified LasR).
T1 construct: full-length LasR
Assay type: binding

T1 sequence (P25084 whole entry): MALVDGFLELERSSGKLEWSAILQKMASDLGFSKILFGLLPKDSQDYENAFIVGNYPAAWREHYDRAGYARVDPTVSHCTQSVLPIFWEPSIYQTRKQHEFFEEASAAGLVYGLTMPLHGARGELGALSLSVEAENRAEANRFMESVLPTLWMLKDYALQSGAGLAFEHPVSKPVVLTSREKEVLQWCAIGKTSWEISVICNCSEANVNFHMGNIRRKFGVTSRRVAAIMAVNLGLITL

SMILES | Kd
O=C1NS(=O)(=O)c2ccccc21 [saccharin] | 12.9 µM
COC(=O)[C@H](Cc1ccccc1)NC(=O)[C@@H](N)CC(=O)O [aspartame] (H-Asp-Phe-OMe) | 11.8 µM
OC[C@H]1O[C@H](O[C@]2(CCl)O[C@H](CCl)[C@@H](O)[C@@H]2O)[C@H](O)[C@@H](O)[C@H]1Cl [sucralose] | 12.8 µM
